Measured values: paper PMC5053523, “In Vitro Antibacterial Activity of Rhodanine Derivatives against Pathogenic Clinical Isolates” (PLoS ONE, 2016)
≈ marks a conversion by molar mass, not a printed value. Read-outs that look alike come from different tables or passages of the source.

What was measured:
[1] = tested on: vancomycin resistant enterococci (VRE) E. faecalis; experiment: Broth microdilution MIC/MBC, VRE E. faecalis; assay type: cell-based; settings: for MIC: read-out: MIC
[2] = tested on: vancomycin resistant enterococci (VRE); experiment: Broth microdilution MIC50/MIC90, VRE panel; assay type: cell-based; settings: Enterococcus, 10 VRE strains
[3] = tested on: Vancomycin Resistant Staphylococcus aureus (VRSA); experiment: Broth microdilution MIC/MBC, VRSA; assay type: cell-based; settings: for MBC / MIC: VRSA
Bacillus anthracis = experiment: microbe, parasite or virus in culture; assay type: cell-based
B. licheniformis = experiment: Broth microdilution MIC/MBC, B. licheniformis; assay type: cell-based; settings: Bacillus licheniformis; for MBC: read-out: MBC; for MIC: read-out: MIC
Clostridium difficile = experiment: MIC against Clostridium difficile, anaerobic broth dilution; assay type: cell-based; settings: Clostridioides difficile
Outline: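 Clinical C. difficile isolates grown anaerobically 48 h at 37 °C, suspended to 0.5 McFarland and diluted 1:300 in pre-reduced supplemented Brain Heart Infusion broth. Compounds serially diluted; plates incubated anaerobically at 37 °C for 48 h. MIC = lowest concentration with no visible growth.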

Acinetobacter baumannii [4] = experiment: Broth microdilution MIC, Acinetobacter baumannii; assay type: cell-based
MRSA USA300 = experiment: MIC against MRSA USA300 with and without 4% human serum albumin; assay type: cell-based, Staphylococcus aureus; settings: Staphylococcus aureus, read-out: MIC against MRSA USA300
Outline: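 MIC measured in tryptic soy broth spiked with 4% HSA and without it, using CLSI broth microdilution on MRSA USA300. Value reported is the lowest concentration preventing bacterial growth.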

Acinetobacter baumannii [5] = experiment: MIC with/without PMBN, Acinetobacter baumannii; assay type: cell-based
Outline: (§1)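 Sub-MIC colistin or PMBN added to broth MIC tests of rhodanines and reference antibiotics against Gram-negative strains; AcrAB efflux-deficient E. coli SM1411ΔacrAB also tested.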

Salmonella Typhimurium = experiment: MIC with/without PMBN, Salmonella Typhimurium; assay type: cell-based
Outline: as §1

Klebsiella pneumoniae = experiment: MIC with/without PMBN, Klebsiella pneumoniae; assay type: cell-based
Outline: as §1

[6] = E. faecalis NR31972 Strain SF 28073
[7] = NCIB9375, B. licheniformis Gibson 46 (NCIB 9375) NR-2494
[8] = NRS712, B. licheniformis NRS 712 NR-2499

## O=C(O)[C@H](Cc1ccccc1)N1C(=O)/C(=C/c2cccc(Cc3ccc(Cl)c(Cl)c3)c2)SC1=S [Rh 3]
[1]; E. faecalis ERV103 HM-934
  MBC: 8 µM (≈ 4.23 µg/mL)
  MIC: 4 µM (≈ 2.11 µg/mL)
[1]; [6]
  MBC: 64 µM (≈ 33.8 µg/mL)
  MIC: 4 µM (≈ 2.11 µg/mL)
[1]; E. faecalis R712 HM-335
  MBC: 4 µM (≈ 2.11 µg/mL)
  MIC: 4 µM (≈ 2.11 µg/mL)
[1]; E. faecalis S613 HM-334
  MBC: 8 µM (≈ 4.23 µg/mL)
  MIC: 4 µM (≈ 2.11 µg/mL)
[1]; E. faecalis TX0104 HM-201
  MBC: 8 µM (≈ 4.23 µg/mL)
  MIC: 4 µM (≈ 2.11 µg/mL)
[2]; VRE, read-out: MIC 90
  MIC90: 8 µM (≈ 4.23 µg/mL)
[2]; read-out: MIC 50
  MIC50: 4 µM (≈ 2.11 µg/mL)
[3]; 15 VRSA strains, read-out: MIC 50
  MIC50: 8 µM (≈ 4.23 µg/mL)
[3]; 15 VRSA strains, read-out: MIC 90
  MIC90: 8 µM (≈ 4.23 µg/mL)
[3]; VRSA 1, read-out: MBC
  MBC: 32 µM (≈ 16.9 µg/mL)
[3]; VRSA 1, read-out: MIC
  MIC: 8 µM (≈ 4.23 µg/mL)
[3]; VRSA 2, read-out: MBC
  MBC: 16 µM (≈ 8.46 µg/mL)
[3]; VRSA 2, read-out: MIC
  MIC: 8 µM (≈ 4.23 µg/mL)
[3]; VRSA 3a, read-out: MBC
  MBC: 16 µM (≈ 8.46 µg/mL)
[3]; VRSA 3a, read-out: MIC
  MIC: 16 µM (≈ 8.46 µg/mL)
[3]; VRSA 3b, read-out: MBC
  MBC: 8 µM (≈ 4.23 µg/mL)
[3]; VRSA 3b, read-out: MIC
  MIC: 8 µM (≈ 4.23 µg/mL)
[3]; VRSA 4, read-out: MBC
  MBC: 32 µM (≈ 16.9 µg/mL)
[3]; VRSA 4, read-out: MIC
  MIC: 8 µM (≈ 4.23 µg/mL)
[3]; VRSA 5, read-out: MBC
  MBC: 64 µM (≈ 33.8 µg/mL)
[3]; VRSA 5, read-out: MIC
  MIC: 8 µM (≈ 4.23 µg/mL)
[3]; VRSA 6, read-out: MBC
  MBC: 16 µM (≈ 8.46 µg/mL)
[3]; VRSA 6, read-out: MIC
  MIC: 8 µM (≈ 4.23 µg/mL)
[3]; VRSA 7, read-out: MBC
  MBC: 32 µM (≈ 16.9 µg/mL)
[3]; VRSA 7, read-out: MIC
  MIC: 8 µM (≈ 4.23 µg/mL)
[3]; VRSA 8, read-out: MBC
  MBC: 16 µM (≈ 8.46 µg/mL)
[3]; VRSA 8, read-out: MIC
  MIC: 8 µM (≈ 4.23 µg/mL)
[3]; VRSA 9, read-out: MBC
  MBC: 16 µM (≈ 8.46 µg/mL)
[3]; VRSA 9, read-out: MIC
  MIC: 8 µM (≈ 4.23 µg/mL)
[3]; VRSA 10, read-out: MBC
  MBC: 64 µM (≈ 33.8 µg/mL)
[3]; VRSA 10, read-out: MIC
  MIC: 8 µM (≈ 4.23 µg/mL)
[3]; VRSA 11a, read-out: MBC
  MBC: 16 µM (≈ 8.46 µg/mL)
[3]; VRSA 11a, read-out: MIC
  MIC: 8 µM (≈ 4.23 µg/mL)
[3]; VRSA 11b, read-out: MBC
  MBC: 16 µM (≈ 8.46 µg/mL)
[3]; VRSA 11b, read-out: MIC
  MIC: 8 µM (≈ 4.23 µg/mL)
[3]; VRSA 12, read-out: MBC
  MBC: 32 µM (≈ 16.9 µg/mL)
[3]; VRSA 12, read-out: MIC
  MIC: 8 µM (≈ 4.23 µg/mL)
[3]; VRSA 13, read-out: MBC
  MBC: 32 µM (≈ 16.9 µg/mL)
[3]; VRSA 13, read-out: MIC
  MIC: 8 µM (≈ 4.23 µg/mL)
Bacillus anthracis; Bacillus anthracis AMES35
  MBC: 2 µM (≈ 1.06 µg/mL)
  MIC: 2 µM (≈ 1.06 µg/mL)
Bacillus anthracis; Bacillus anthracis UM23
  MBC: 2 µM (≈ 1.06 µg/mL)
  MIC: 2 µM (≈ 1.06 µg/mL)
Bacillus anthracis; Bacillus anthracis Weybridge
  MBC: 2 µM (≈ 1.06 µg/mL)
  MIC: 2 µM (≈ 1.06 µg/mL)
B. licheniformis; [7]
  MBC: 2 µM (≈ 1.06 µg/mL)
  MIC: 2 µM (≈ 1.06 µg/mL)
B. licheniformis; [8]
  MBC: 4 µM (≈ 2.11 µg/mL)
  MIC: 4 µM (≈ 2.11 µg/mL)
Clostridium difficile; C. difficile HM-88
  MIC: 2 µM (≈ 1.06 µg/mL)
Clostridium difficile; C. difficile HM-745
  MIC: 1 µM (≈ 0.528 µg/mL)
Clostridium difficile; C. difficile HM-746
  MIC: 2 µM (≈ 1.06 µg/mL)
Clostridium difficile; C. difficile Isolate-1 NR-13427
  MIC: 2 µM (≈ 1.06 µg/mL)
Clostridium difficile; C. difficile Toxigenic Strain P8 NR-32888
  MIC: 4 µM (≈ 2.11 µg/mL)
Acinetobacter baumannii [4]; ATCC13345
  MIC: > 128 µM
Acinetobacter baumannii [4]; ATCC17786
  MIC: > 128 µM
MRSA USA300; 24 h, Media TSB + 4% HSA
  MIC: > 64 µM
MRSA USA300; Media TSB
  MIC: 8 µM (≈ 4.23 µg/mL)
Acinetobacter baumannii [5]; Acinetobacter baumannii ATCC BAA747, PMBN (+) 4 μg/mL, read-out: MIC
  MIC: >64 µM
Acinetobacter baumannii [5]; Acinetobacter baumannii ATCC BAA19606, PMBN (+) 4 μg/mL, read-out: MIC
  MIC: >64 µM
Acinetobacter baumannii [5]; Acinetobacter baumannii, ATCCBAA747
  MIC: > 128 µM
Acinetobacter baumannii [5]; Acinetobacter baumannii, ATCCBAA19606
  MIC: > 128 µM
Salmonella Typhimurium; Salmonella Typhimurium ATCC 700720, PMBN (+) 4 μg/mL, read-out: MIC
  MIC: >128 µM
Salmonella Typhimurium; Salmonella enterica, ATCC 700720 / TYPHIMURIUM
  MIC: > 128 µM
Klebsiella pneumoniae; Klebsiella pneumoniae ATCC BAA 1706, PMBN (+) 4 μg/mL
  MIC: >64 µM
Klebsiella pneumoniae; Klebsiella pneumoniae ATCC BAA 2146, PMBN (+) 4 μg/mL
  MIC: >64 µM
Klebsiella pneumoniae; Klebsiella pneumoniae, BAA1706
  MIC: > 128 µM
Klebsiella pneumoniae; Klebsiella pneumoniae, BAA2146
  MIC: > 128 µM
